Test systems include HCC-2998 colon; HOP-92 NSCLC; KM12 colon; UACC-62 melanoma; OVCAR-4 ovarian; SK-MEL-5 melanoma; MALME-3M melanoma; UO-31 renal; NCI-H460 lung.
Experiment in all cases: growth of human tumour cells (NCI), 48 h

Structures are written as SMILES.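 The compound was tested at five concentrations on cells cultured in 96-well plates, with a 48-hour exposure period. Abbreviation: GI50, concentration required for 50% inhibition of growth. TGI: concentration producing complete growth inhibition.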

In the case of `C#Cc1cccc(Nc2ncnc3cc(OC)c(OCCCCCCC(=O)NO)cc23)c1`, the GI50 in the assay with HCC-2998 colon is 217 nM; in the assay with HOP-92 NSCLC, 51.2 nM; in the assay with KM12 colon, 0.197 µM; with UACC-62 melanoma, 79.7 nM; with OVCAR-4 ovarian it was 0.374 µM; in the assay on SK-MEL-5 melanoma, 177 nM. The GI50 in the assay on MALME-3M melanoma is 37 nM; in the assay on UO-31 renal, 0.141 µM; with NCI-H460 lung, 444 nM. Also, the TGI in the assay on HCC-2998 colon amounted to 1340 nM; in the assay with HOP-92 NSCLC, 0.415 µM; in the assay on KM12 colon it was 3.46 µM; with UACC-62 melanoma, 0.344 µM; with OVCAR-4 ovarian it was 5.34 µM; with SK-MEL-5 melanoma, 0.496 µM. Also, the TGI in the assay with MALME-3M melanoma stood at 0.763 µM; in the assay with UO-31 renal, 2.69 µM; in the assay with NCI-H460 lung it was 4.31 µM.

With `CC(SC(C)C(=O)N/N=C/c1cccc(Cl)c1)C(=O)N/N=C\c1cccc(Cl)c1` (centres undefined), the GI50 in the assay with HCC-2998 colon is 8000 nM; in the assay on KM12 colon it was 11.4 µM; in the assay on UACC-62 melanoma, 20300 nM; in the assay on OVCAR-4 ovarian, 1.63 µM; in the assay with SK-MEL-5 melanoma, 16300 nM; in the assay on MALME-3M melanoma, 13900 nM. For the same molecule, the GI50 in the assay with UO-31 renal was 14.8 µM; in the assay with NCI-H460 lung it was 2340 nM. Further, the TGI is 75800 nM with HCC-2998 colon; 30.3 µM in the assay with KM12 colon; 46.2 µM with UACC-62 melanoma; 3.35 µM with OVCAR-4 ovarian; 31.4 µM in the assay on SK-MEL-5 melanoma; 35.7 µM in the assay on MALME-3M melanoma. For the same molecule, the TGI in the assay with UO-31 renal is 94.4 µM; with NCI-H460 lung, 4.92 µM.

`Cc1ccc(C(SCC(N)C(=O)O)(c2ccccc2)c2ccc(C)cc2)cc1` (centres undefined): the GI50 is 236 nM in the assay on HCC-2998 colon; 1190 nM in the assay with HOP-92 NSCLC; 0.219 µM in the assay with KM12 colon; 119 nM in the assay on UACC-62 melanoma; 13.4 µM with OVCAR-4 ovarian; 46.5 nM in the assay with SK-MEL-5 melanoma. The GI50 in the assay with MALME-3M melanoma was 2570 nM; with UO-31 renal it was 7.96 µM; in the assay with NCI-H460 lung, 307 nM. In addition, the TGI worked out at 2770 nM in the assay on HCC-2998 colon; 22.4 µM with HOP-92 NSCLC; 12.8 µM in the assay with KM12 colon; 17.3 µM in the assay with UACC-62 melanoma; 72.7 µM in the assay with OVCAR-4 ovarian; 13.8 µM with SK-MEL-5 melanoma. Moreover, the results for the TGI in the assay on MALME-3M melanoma, in the assay on UO-31 renal and with NCI-H460 lung were 22.1 µM, over 55 µM and 12 µM, respectively.

`Clc1coc2nc3ccccc3c(Nc3ccc4c(c3)OCO4)c12`: the GI50 was 404 nM in the assay with HCC-2998 colon; 8000 nM in the assay on HOP-92 NSCLC; 0.997 µM in the assay with KM12 colon; 408 nM in the assay with UACC-62 melanoma; 22.8 µM in the assay on OVCAR-4 ovarian; 1460 nM with SK-MEL-5 melanoma. Further, the results for the GI50 with MALME-3M melanoma, in the assay with UO-31 renal and in the assay on NCI-H460 lung were 795 nM, 6.5 µM and 1980 nM, respectively. In addition, the TGI is 2800 nM in the assay with HCC-2998 colon; 63.2 µM with HOP-92 NSCLC; 12.5 µM in the assay with KM12 colon; 5.32 µM with UACC-62 melanoma; over 100 µM with OVCAR-4 ovarian; 5.78 µM in the assay on SK-MEL-5 melanoma. Also, the TGI with MALME-3M melanoma was 8.67 µM; in the assay with UO-31 renal, over 100 µM; in the assay with NCI-H460 lung, 14.5 µM.

With `C/C(=C\CCc1ccoc1)CC/C=C(\C)CCCC1=CC(=O)OC1`, the GI50 was 8400 nM in the assay with HCC-2998 colon; 2090 nM in the assay with HOP-92 NSCLC; 8.44 µM in the assay with KM12 colon; 4730 nM in the assay on UACC-62 melanoma; 2550 nM in the assay on SK-MEL-5 melanoma; 13700 nM with MALME-3M melanoma. Also, the GI50 was 4.35 µM with UO-31 renal and 5210 nM with NCI-H460 lung. The TGI is 29100 nM in the assay on HCC-2998 colon; 13 µM in the assay on HOP-92 NSCLC; 23.7 µM in the assay on KM12 colon; 29.7 µM with UACC-62 melanoma; 6.66 µM in the assay on SK-MEL-5 melanoma; 31.5 µM in the assay with MALME-3M melanoma. Besides, the TGI in the assay with UO-31 renal turned out to be 48.7 µM; in the assay on NCI-H460 lung, 27.8 µM.

Take `Cc1nnc(S(=O)(=O)c2ccc(N=Nc3c(N)nc(N)nc3N)cc2)s1`: the TGI in the assay with HOP-92 NSCLC, in the assay on KM12 colon, in the assay on UACC-62 melanoma, in the assay with OVCAR-4 ovarian, with SK-MEL-5 melanoma and in the assay with MALME-3M melanoma was over 100 µM in each case. In addition, the TGI with UO-31 renal and in the assay on NCI-H460 lung was over 100 µM in each case.

Consider `NC(=NCCCOc1ccc(Cl)cc1)Nc1ccc(C(F)(F)F)cc1`, for which the GI50 is 1200 nM with HCC-2998 colon; 849 nM in the assay with HOP-92 NSCLC; 1810 nM with UACC-62 melanoma; 2.15 µM in the assay on OVCAR-4 ovarian; 1610 nM with SK-MEL-5 melanoma; 1930 nM in the assay with MALME-3M melanoma. In addition, the GI50 was 1.85 µM in the assay with UO-31 renal and 2000 nM in the assay with NCI-H460 lung. The TGI is 2640 nM in the assay with HCC-2998 colon; 4.63 µM with HOP-92 NSCLC; 3.61 µM in the assay with UACC-62 melanoma; 8.01 µM in the assay with OVCAR-4 ovarian; 2.97 µM in the assay on SK-MEL-5 melanoma; 4.01 µM in the assay with MALME-3M melanoma. Also, the TGI in the assay with UO-31 renal turned out to be 7.37 µM; with NCI-H460 lung, 4.97 µM.

With `CCCCCCCCCC/C=C/CC(=O)SCCNC(=O)CCNC(=O)[C@@H](O)C(C)(C)COP(=O)(O)OP(=O)(O)OCC1OC(n2cnc3c(N)ncnc32)C(O)C1OP(=O)(O)O` (some centres undefined), the TGI is over 10000 nM in the assay on HCC-2998 colon; over 10 µM in the assay on HOP-92 NSCLC; over 10 µM with KM12 colon; over 10 µM with UACC-62 melanoma; over 10 µM in the assay on OVCAR-4 ovarian; over 10 µM in the assay on SK-MEL-5 melanoma. Moreover, the TGI with MALME-3M melanoma and with NCI-H460 lung was over 10 µM in each case.

In the case of `COc1ncnc(C2CC2)c1-c1ncc2cnn(Cc3ccc(-c4nc(C(F)(F)F)cn4C(C)C)cc3)c2n1`, the GI50 was 23300 nM with HCC-2998 colon; 6410 nM in the assay on HOP-92 NSCLC; 23.4 µM with KM12 colon; 14.2 µM in the assay on OVCAR-4 ovarian; 12600 nM with SK-MEL-5 melanoma; 17800 nM with MALME-3M melanoma. The GI50 in the assay with UO-31 renal was 3.25 µM; in the assay on NCI-H460 lung, 18400 nM. Also, the TGI in the assay on HCC-2998 colon is over 100000 nM; with HOP-92 NSCLC, 73.5 µM; with KM12 colon it was 81.8 µM; in the assay with OVCAR-4 ovarian, 75.6 µM; with SK-MEL-5 melanoma it was 25.2 µM; in the assay with MALME-3M melanoma it was 57.3 µM. Moreover, the figures for the TGI in the assay on UO-31 renal and in the assay on NCI-H460 lung were 36.7 µM and 85.4 µM, respectively.

These data come from PubChem BioAssay (NCI).
